Consider eight compounds from article PMC12186844 (ACS Chemical Neuroscience, 2025).

Read-outs that look alike come from different tables or passages of the source.

Test [1] concerns the target T1, D2LR (Homo sapiens, UniProt P14416). The test is described as follows: inhibition of forskolin-stimulated cAMP production, BRET biosensor.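 Further: Flp-In-CHO cells stably expressing CAMYEL cAMP BRET sensor, agonist plus 10 µM forskolin, net BRET after forskolin-vehicle subtraction, parameters from complete operational model of allosterism and agonism.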 The test is classed as cell-based.
Procedure: Flp-In-CHO cells stably coexpressing the CAMYEL biosensor and DRs were plated into white 96-well CulturPlates (Revvity) and grown overnight. The cells were equilibrated in Hank’s balanced salt solution (HBSS) at 37 °C (or 25 °C when indicated) before starting the experiment. The cells were costimulated with the agonists and 10 μM forskolin for the indicated time frames when the BRET readings were captured. Coelenterazine (Nanolight Technology, AZ) was added at a final concentration of 5 μM at least 3 min prior to measurement. […] Net BRET was determined by subtraction of the vehicle control coadded with 10 μM forskolin.
Dose–response curves were fitted using the following three-parameter equation: response=bottom+top−bottom/1+10^(logEC50−log[A]) 5 where top and bottom represent the maximal and minimal asymptote of the dose response curve, [A] is the molar concentration of the agonist, and EC50 is the molar concentration of the agonist required to give a response half-way between bottom and top.
A further test concerns D1Rs. The conditions noted are these: earlier report, reference number not given; cited from earlier work.
For test [2], the target named is T1, D2LR. The test is described as follows: whole cell [3H]raclopride binding assay.
Procedure: The binding reaction was conducted in HBSS for 1 h at 37 °C. The adherent cells were washed two times with cold 0.9% NaCl solution, and 100 μL/well scintilation liquid was added to the plate. The remaining radioactivity was detected in a MicroBeta counter.
The mark [3] stands for this setting: orthosteric agonist efficacy, operational model.
The mark [4] stands for this setting: orthosteric ligand, radioligand binding assay.

T1 sequence (P14416 whole entry): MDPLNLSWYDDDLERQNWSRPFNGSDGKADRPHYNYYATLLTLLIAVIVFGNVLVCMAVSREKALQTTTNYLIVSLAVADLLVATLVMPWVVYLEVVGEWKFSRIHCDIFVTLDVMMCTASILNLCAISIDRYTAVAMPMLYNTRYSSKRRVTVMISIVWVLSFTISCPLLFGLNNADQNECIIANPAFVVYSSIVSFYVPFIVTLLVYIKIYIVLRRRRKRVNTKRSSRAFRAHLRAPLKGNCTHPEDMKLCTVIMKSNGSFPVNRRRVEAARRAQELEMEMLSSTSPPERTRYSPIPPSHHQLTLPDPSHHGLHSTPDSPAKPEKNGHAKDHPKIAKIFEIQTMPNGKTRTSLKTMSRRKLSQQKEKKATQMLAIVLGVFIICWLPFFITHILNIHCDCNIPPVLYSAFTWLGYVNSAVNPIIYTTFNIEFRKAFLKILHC

On to `CCCN1C[C@H](CSC)C[C@@H]2c3cccc4[nH]cc(c34)C[C@H]21` [pergolide, reference compound], for which, at D2LR [1] (setting [3]), the LogτA was found to be 1.01 ± 0.03 and the τA stood at 10.2.

On D2LR [1] (setting [3]), `CCCN1CCC[C@@H](c2cccc(O)c2)C1` [S-(3)-PPP, reference compound] displayed a LogτA of 0.33 ± 0.05 and a τA of 2.14.

At D2LR [1], `CCCN[C@H]1CCc2nc(N)sc2C1` [pramipexole, reference compound] showed a LogτA of 1.05 ± 0.04 and a τA of 11.2.

With `CC1Cc2ccccc2N1C(=O)c1nc2ccccc2s1` (stereo not shown) [D2 PAM1, 1,3-benzothiazol-2-yl(2-methyl-2,3-dihydro-indol-1-yl)methanone], the “activity at D1Rs” value in the test on D1Rs was “does not display activity”.

At D2LR [1], `CC(C)C[C@H]1C(=O)N2CCC[C@H]2[C@]2(O)O[C@](NC(=O)[C@@H]3C=C4c5cccc6[nH]c(Br)c(c56)C[C@H]4N(C)C3)(C(C)C)C(=O)N12` [bromocriptine, reference compound] yielded a LogτA of 0.66 ± 0.04 and a τA of 4.6. Further, at D2LR [2], the Kd (as a rule, the concentration at which binding is half-saturated) was 1.32 nM.

At D2LR [1], `CCCN(CCc1cccs1)[C@H]1CCc2c(O)cccc2C1` [rotigotine, reference compound] showed a LogτA of 1.17 ± 0.05 and a τA of 14.8. At D2LR [2], the Kd is 3.09 nM.

Consider `CN1CCc2cccc3c2[C@H]1Cc1ccc(O)c(O)c1-3` [apomorphine, reference compound], for which, at D2LR [1], the LogτA was 0.93 ± 0.02 and the τA is given as 8.5.

At D2LR [1] (setting [3]), `CCCN(CCC)CCc1cccc2c1CC(=O)N2` [ropirinole, reference compound] yielded a LogτA of 1.14 ± 0.08 and a τA of 13.8. On D2LR [2] (setting [4]), this compound had a KA of 1350 nM and a pKA of 5.87 ± 0.18.
